One may read the IC50 as the midpoint of a concentration-inhibition curve. The low end stands for inhibition by little substance, the high end for a need for much substance.

We go through 31 compounds from patent US20250340529A1, “Heterocyclic Compounds as Immunomodulators of PD-L1 Interactions” (Ascletis BioScience Co., Ltd, priority 2021, published 2025).

For assay [1], the target named is PD-1/PD-L1 (Homo sapiens (Human), UniProt Q9NZQ7). The assay can be described thus: PD-1/PD-L1 Homogeneous Time-Resolved Fluorescence (HTRF) binding assay. As to conditions: 3 nM PD1, 10 nM PD-L1, 25° C., PBS pH 7.4. How it is done: PD-1/PD-L1 Homogeneous Time-Resolved Fluorescence (HTRF) Binding Assay
Sequence of PD-1/PD-L1 (Q9NZQ7 19-238): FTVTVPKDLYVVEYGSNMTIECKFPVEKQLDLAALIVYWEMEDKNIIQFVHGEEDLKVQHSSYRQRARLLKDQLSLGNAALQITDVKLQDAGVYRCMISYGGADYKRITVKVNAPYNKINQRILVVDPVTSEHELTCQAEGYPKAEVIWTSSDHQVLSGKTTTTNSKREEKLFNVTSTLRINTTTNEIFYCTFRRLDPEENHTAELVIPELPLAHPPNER
The assays were conducted in a standard black 384-well polystyrene plate with a final volume of 20 μL. Inhibitors were first serially diluted in DMSO and then added to the plate wells before the addition of other reaction components. The final concentration of DMSO in the assay was 1%. The assays were carried out at 25° C. in the PBS buffer (pH 7.4) with 0.05% Tween-20 and 0.1% BSA. Recombinant human PD-L1 protein (19-238) with a Histag at the C-terminus was purchased from AcroBiosystems (PD1-H5229). Recombinant human PD-1 protein (25-167) with Fe tag at the C-terminus was also purchased from AcroBiosystems (PD1-H5257). PD-L1 and PD-1 proteins were diluted in the assay buffer and 10 μL was added to the plate well. Plates were centrifuged and proteins were preincubated with inhibitors for 40 minutes. The incubation was followed by the addition of 10 μL of HTRF detection buffer supplemented with Europium cryptate-labeled anti-human IgG (PerkinElmer-AD0212) specific for Fe and anti-His antibody conjugated to SureLight®-Allophycocyanin (APC, PerkinElmer-AD0059H). After centrifugation, the plate was incubated at 25° C. for 60 min. before reading on a PHERAstar FS plate reader (665 nm/620 nm ratio). Final concentrations in the assay were—3 nM PD1, 10 nM PD-L1, 1 nM europium anti-human IgG and 20 nM anti-His-Allophycocyanin. IC50 determination was performed by fitting the curve of percent control activity versus the log of the inhibitor concentration.
For orientation: TR-FRET usually uses a lanthanide donor and a delayed reading to cut background.

Assay [2] has as its target PD-L1/CHO-K1 cells (Homo sapiens (Human), UniProt Q9NZQ7). Nature of the assay: PD-L1 internalization (FACS, PD-L1/CHO-K1 cells). Format: cell-based. As to conditions: % activation of PD-L1 internalization = 1 − PD-L1 signal; 17 hours incubation. The procedure:
Day 1. Seeding cells: Digest the PD-L1/CHO-K1 cells by trypsin in the flask, then counting the cell number and diluted to 1×10^5 cells/ml. Seeding cells to 6 well plate (Corning, #3516), 2 mL/well. The plates were incubated at 37° C., […] incubator for 24 hours.
Day 2. Preparing compounds and treated cells: Dilute GLC01-258 from 15 mM to 0.5 mM by using DMSO, and 15 mM compound were serial diluted from 15 mM˜15 nM by DMSO, Then 500 times dilute the compounds by using assay buffer. Prepare 0.2% DMSO in assay buffer used for Vehicle control and low control. Take out the plates, aspirated the medium and thrown away. Adding 2 mL of the diluted compounds, vehicle control and low control to corresponding wells. Then incubated the plates for 17 hours at 37° C., 5% CO2 incubator.
Day 3. Preparing samples for FACS: After 17 hours incubation, discarded medium and washed by the PBS. Cells in each well were Digested by trypsin. Centrifuge and discard the supernatant, then wash the cells by DPBS (Ca^2+, Mg^2+ free) for twice. 10 fold dilute the antibody (PE-conjugated mouse anti-human CD274) by DPBS, then adding the staining solution to compounds treated samples and vehicle control sample. The low control only add DPBS without antibody. Incubate the plates at room temperature for 20 minutes and protect from light. After 20 minutes, wash the samples by DPBS for twice. Then centrifuge and discard the supernatant. Resuspend cells by 300 uL DPBS and transfer the samples to 5 mL Polystryrene Round-Bottom Tube (Falcon, #352054), then tested by BD FACSCanto. […].
Set the PD-L1 signal of vehicle control as 100%, PD-L1 signal of Low control as 0%. Then calculate the compound treated samples' PD-L1 signal
0% PD-L1 signal: Low control which stained without anti-CD274
100% PD-L1 Signal: vehicle control which stained with anti-CD274
The % activation of PD-L1 Internalization=1−PD-L1 signal of compound.

Sequence of PD-L1/CHO-K1 cells (Q9NZQ7 19-290): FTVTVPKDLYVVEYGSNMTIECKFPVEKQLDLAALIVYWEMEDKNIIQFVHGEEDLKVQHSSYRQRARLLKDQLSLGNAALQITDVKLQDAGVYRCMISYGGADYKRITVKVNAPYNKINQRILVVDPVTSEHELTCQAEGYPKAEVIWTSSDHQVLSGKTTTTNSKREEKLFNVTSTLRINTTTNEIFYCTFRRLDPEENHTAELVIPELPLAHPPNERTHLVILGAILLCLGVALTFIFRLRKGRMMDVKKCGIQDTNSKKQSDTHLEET

In assay [1], `O=C(O)[C@H](CCO)NCCN1C(=O)COc2cc(-c3cccc(-c4cccc(-c5ccc6c(c5)OCC(=O)N6CCN[C@@H](CCO)C(=O)O)c4Cl)c3Cl)ccc21` [Compound 560] showed an IC50 of 7.78 nM. In assay [2], this compound had an Internalization of 3.10%. Consider `O=C(O)CC(O)CNCCN1C(=O)COc2cc(-c3cccc(-c4cccc(-c5ccc6c(c5)OCC(=O)N6CCNCC(O)CC(=O)O)c4Cl)c3Cl)ccc21` (centres unmarked) [Compound 470], for which the IC50 in assay [1] is 2.28 nM. This compound also gave an Internalization in assay [2] of 20.90%. The like results for `O=C1COc2cc(-c3cccc(-c4cccc(-c5ccc6c(c5)OCC(=O)N6CCNCCO)c4Cl)c3Cl)ccc2N1CCNCCO` [Compound 445] were, in that order, 5.01 nM and 20.50%. For `Cl.O=C1CC[C@@H](CN2C(=O)COc3cc(-c4cccc(-c5cccc(-c6ccc7c(c6)OCC(=O)N7C[C@@H]6CCCN6)c5Cl)c4Cl)ccc32)N1` [Compound 517], in assay [1], the IC50 stood at 7.46 nM. In assay [2], this compound displayed an Internalization of 22.80%. The like results for `C[C@H](NCCN1C(=O)COc2cc(-c3cccc(-c4cccc(-c5ccc6c(c5)OCC(=O)N6CCN[C@@H](C)C(=O)O)c4Cl)c3Cl)ccc21)C(=O)O` [Compound 536] were, in that order, 4.31 nM and 7.90%. Turning to `CN(CCN1C(=O)COc2cc(-c3cccc(-c4cccc(-c5ccc6c(c5)OCC(=O)N6CCN(C)C[C@@H]5CCC(=O)N5)c4Cl)c3Cl)ccc21)C[C@@H]1CCC(=O)N1` [Compound 460], the IC50 in assay [1] is 9.9 nM. Moreover, the Internalization in assay [2] was found to be 1.90%. The like results for `O=C1COc2cc(-c3cccc(-c4cccc(-c5ccc6c(c5)OCC(=O)N6C[C@@H]5CC6(CC6)CN5)c4Cl)c3Cl)ccc2N1C[C@@H]1CC2(CC2)CN1` [Compound 540] were, in that order, 10.5 nM and 10.60%. The like results for `O=C(O)CCNCCN1C(=O)COc2cc(-c3cccc(-c4cccc(-c5ccc6c(c5)OCC(=O)N6CCNCCC(=O)O)c4Cl)c3Cl)ccc21` [Compound 468] were, in that order, 4.9 nM and 20.90%.

On to `O=C1COc2cc(-c3cccc(-c4cccc(-c5ccc6c(c5)OCC(=O)N6C[C@@H]5CCNC5)c4Cl)c3Cl)ccc2N1C[C@@H]1CCNC1` [Compound 503], for which the concentration for half-maximal inhibition (IC50) in assay [1] was found to be 4.19 nM. The Internalization in assay [2] came to 3.50%. Consider `O=C1CC[C@@H](CN2C(=O)COc3cc(-c4cccc(-c5cccc(-c6ccc7c(c6)OCC(=O)N7C[C@@H]6CCC(=O)N6)c5Cl)c4Cl)ccc32)N1` [Compound 338], for which, in assay [1], the IC50 is 1.46 nM. This compound registered an Internalization in assay [2] of 6.80%. The like results for `O=C1COc2cc(-c3cccc(-c4cccc(-c5ccc6c(c5)OCC(=O)N6C[C@@H]5CC(F)(F)CN5)c4Cl)c3Cl)ccc2N1C[C@@H]1CC(F)(F)CN1` [Compound 530] were, in that order, 76.9 nM and 1.60%. On to `NCCN1C(=O)COc2cc(-c3cccc(-c4cccc(-c5ccc6c(c5)OCC(=O)N6CCN)c4Cl)c3Cl)ccc21` [Compound 538], for which the IC50 in assay [1] turned out to be 8.18 nM. In assay [2], this compound showed an Internalization of 3.60%.

Regarding `O=C(O)CCNCCCN1C(=O)COc2cc(-c3cccc(-c4cccc(-c5ccc6c(c5)OCC(=O)N6CCCNCCC(=O)O)c4Cl)c3Cl)ccc21` [Compound 480], in assay [1], the IC50 stood at 5.48 nM. The Internalization in assay [2] amounted to 5.70%. `O=C(O)[C@@H](O)CNCCN1C(=O)COc2cc(-c3cccc(-c4cccc(-c5ccc6c(c5)OCC(=O)N6CCNC[C@H](O)C(=O)O)c4Cl)c3Cl)ccc21` [Compound 553]: the Internalization in assay [2] turned out to be 9.40%. With `O=C(O)[C@@H](CO)NCCN1C(=O)COc2cc(-c3cccc(-c4cccc(-c5ccc6c(c5)OCC(=O)N6CCN[C@H](CO)C(=O)O)c4Cl)c3Cl)ccc21` [Compound 483], in assay [1], the IC50 turned out to be 6.31 nM. Also, the Internalization in assay [2] turned out to be 19.80%. Regarding `O=C1CC[C@@H](CN2C(=O)COc3cc(-c4cccc(-c5cccc(-c6cc7c(cc6F)N(C[C@@H]6CCC(=O)N6)C(=O)CO7)c5Cl)c4Cl)c(F)cc32)N1` [Compound 388], the IC50 in assay [1] turned out to be 1.1 nM. In addition, the Internalization in assay [2] is on record as 6.10%. The like results for `O=C(O)[C@H](CO)NCCN1C(=O)COc2cc(-c3cccc(-c4cccc(-c5cc(F)c6c(c5)OCC(=O)N6CCN[C@@H](CO)C(=O)O)c4Cl)c3Cl)cc(F)c21` [Compound 561] were, in that order, 8.95 nM and 5.30%. Take `N#CCN1C(=O)COc2cc(-c3cccc(-c4cccc(-c5ccc6c(c5)OCC(=O)N6CC#N)c4Cl)c3Cl)ccc21` [Compound 397, 2,2′-((2,2′-dichloro-[1,1′-biphenyl]-3,3′-diyl)bis(3-oxo-2,3-dihydro-4H-benzo[b][1,4]oxazine-7,4-diyl))diacetonitrile]: the IC50 in assay [1] came out at 305 nM.

In turn, `O=C1COc2cc(-c3cccc(-c4cccc(-c5ccc6c(c5)OCC(=O)N6C[C@H]5CCNC5)c4Cl)c3Cl)ccc2N1C[C@H]1CCNC1` [Compound 531] registered an IC50 in assay [1] of 7.22 nM. On the same count and under the same terms, under `O=C(O)CCCCNCCN1C(=O)COc2cc(-c3cccc(-c4cccc(-c5ccc6c(c5)OCC(=O)N6CCNCCCCC(=O)O)c4Cl)c3Cl)ccc21` [Compound 490] stands 3.51 nM. The same measure, in the same setting: then `O=C1CC[C@@H](Cn2c(=O)cnc3cc(-c4cccc(-c5cccc(-c6ccc7c(c6)ncc(=O)n7C[C@@H]6CCC(=O)N6)c5Cl)c4Cl)ccc32)N1` [Compound 361], with 1.75 nM; and `O=C(O)C1CCN(CCN2C(=O)COc3cc(-c4cccc(-c5cccc(-c6ccc7c(c6)OCC(=O)N7CCNCCO)c5Cl)c4Cl)ccc32)C1` (centres unmarked) [Compound 493], with 5.59 nM. As for `O=C(O)[C@H](CO)NCCN1C(=O)COc2cc(-c3cccc(-c4cccc(-c5ccc6c(c5)OCC(=O)N6CCN[C@@H](CO)C(=O)O)c4F)c3F)ccc21` [Compound 613, (2S,2'S)-2,2′-((((2,2′-difluoro-[1,1′-biphenyl]-3,3′-diyl)bis(3-oxo-2,3-dihydro-4H-benzo[b][1,4]oxazine-7,4-diyl))bis(ethane-2,1-diyl))bis(azanediyl))bis(3-hydroxypropanoic acid)], the Internalization in assay [2] was determined as 4.80%.

With `O=C1CC(CN2C(=O)COc3cc(-c4cccc(-c5cccc(-c6ccc7c(c6)OCC(=O)N7C[C@@H]6CCC(=O)N6)c5Cl)c4Cl)ccc32)CN1` (some centres unmarked) [Compound 450], the IC50 in assay [1] was determined as 6.47 nM.

The compound `O=C1COc2cc(-c3cccc(-c4cccc(-c5ccc6c(c5)OCC(=O)N6CCO)c4Cl)c3Cl)ccc2N1CCO` [Compound 378] yielded an IC50 in assay [1] of 69.7 nM. For the compound `O=C1N[C@@H](CN2C(=O)COc3cc(-c4cccc(-c5cccc(-c6ccc7c(c6)OCC(=O)N7C[C@H]6COC(=O)N6)c5Cl)c4Cl)ccc32)CO1` [Compound 413], the IC50 in assay [1] amounted to 7.05 nM. Same read-out and setting: then `O=C1CC[C@@H](CN2C(=O)COc3nc(-c4cccc(-c5cccc(-c6cnc7c(n6)OCC(=O)N7C[C@@H]6CCC(=O)N6)c5Cl)c4Cl)cnc32)N1` [Compound 466], with 5 nM; and `CC(C)[C@H](N)C(=O)N1CCC[C@H]1CN1C(=O)COc2cc(-c3cccc(-c4cccc(-c5ccc6c(c5)OCC(=O)N6C[C@@H]5CCCN5C(=O)[C@@H](N)C(C)C)c4Cl)c3Cl)ccc21` [Compound 459], with 436 nM; and `CC(=O)NCCNCCN1C(=O)COc2cc(-c3cccc(-c4cccc(-c5ccc6c(c5)OCC(=O)N6C[C@@H]5CCC(=O)N5)c4Cl)c3Cl)ccc21` [Compound 489], with 6.31 nM. Still for that read-out and setting: then `O=C(O)CNCCCN1C(=O)COc2cc(-c3cccc(-c4cccc(-c5ccc6c(c5)OCC(=O)N6CCCNCC(=O)O)c4Cl)c3Cl)ccc21` [Compound 479], with 6.02 nM. As to `O=C1COc2cc(-c3cccc(-c4cccc(-c5ccc6c(c5)OCC(=O)N6C[C@@H]5CCCCN5)c4Cl)c3Cl)ccc2N1C[C@@H]1CCCCN1` [Compound 558], the IC50 in assay [1] turned out to be 10.6 nM.
